Results as given in patent US8623813B2, “Synergistic combinations of polyene fungicides and non-ribosomal peptides and related methods of use” (priority 2011, dated 2014).

Legend:
Type in all cases: cell-based
Geotrichum candidum = assay: Liquid fungal growth assay in 96-well plates, Geotrichum candidum; conditions: combinations 1:1 w/w
Protocol: For each 96 well plate, three separate additions were made to each well. First, 100 μl of potato dextrose broth w/100 ppm chloramphenicol was added. […] Finally, 50 μl of DI H2O was added to the blank plate (the plate intended to be left blank for an OD reference) OR 50 μl of 10^5 fungal inoculum was added to each well in its respective plate(s). […] The plates were then covered with lids and placed at 20° C. for 3 days of incubation. After the incubation period, the growth of each well in each plate was rated by optical density at 600 nm using a PerkinElmer Victor plate-reader using the setting “MIC Settings @600 (0.1 s)” that can be found in the Wallac® Victor® software. The results were also roughly assessed visually as cloudy wells (partial growth) appearing in the dilution series where the sample fell off in activity. After an OD was obtained for each well, the relative growth was determined by the following calculation: [(Treatment w/Bacteria)-(Treatment w/o Bacteria)/(Diluent Control w/Bacteria)-(Diluent Control w/o Bacteria)]×100. The positive control wells for bacterial growth were considered acceptable if the average and standard deviation of the OD readings at 600 nm were well above the range of the non-inoculated OD reference wells. […] Synergy was then determined by Gowing's Equation, set forth above. […]

[1] = system: Geotrichum citri-aurantii; assay: Liquid fungal growth assay in 96-well plates, Geotrichum citri-aurantii; conditions: each component 2.23 ppm final, combinations 1:1 w/w
Protocol: For each 96 well plate, three separate additions were made to each well. First, 100 μl of potato dextrose broth w/100 ppm chloramphenicol was added. Then 25 μl of each sample (lipopeptides, natamycin, or combo from dilution plate) was supplemented. Finally, 50 μl of DI H2O was added to the blank plate (the plate intended to be left blank for an OD reference) OR 50 μl of 10^5 fungal inoculum was added to each well in its respective plate(s). […] The plates were then covered with lids and placed at 20° C. for 3 days of incubation. After the incubation period, the growth of each well in each plate was rated by optical density at 600 nm using a PerkinElmer Victor plate-reader using the setting “MIC Settings @600 (0.1 s)” that can be found in the Wallac® Victor® software. The results were also roughly assessed visually as cloudy wells (partial growth) appearing in the dilution series where the sample fell off in activity. After an OD was obtained for each well, the relative growth was determined by the following calculation: [(Treatment w/Bacteria)-(Treatment w/o Bacteria)/(Diluent Control w/Bacteria)-(Diluent Control w/o Bacteria)]×100. The positive control wells for bacterial growth were considered acceptable if the average and standard deviation of the OD readings at 600 nm were well above the range of the non-inoculated OD reference wells. […]

Saccharomyces cerevisiae = assay: Liquid fungal growth assay in 96-well plates (YPD), Saccharomyces cerevisiae; conditions: combinations 1:1 w/w
Penicillium expansum = assay: Liquid fungal growth assay in 96-well plates, Penicillium expansum
Protocol: The effect of (i) natamycin (Haorui Pharma-Chem. Inc.), (ii) a crude extract of lipopeptides from Bacillus subtilis QST713 (prepared as described in Example 1), and (iii) a combination of natamycin and a crude extract of lipopeptides on Penicillium expansum was investigated. A liquid fungal growth assay was performed in 96-well plates to determine whether the combination of lipopeptides and natamycin is synergistic in inhibiting fungal growth. All procedures were conducted aseptically.
For each 96 well plate, three separate additions were made to each well. First, 100 μl of potato dextrose broth w/100 ppm chloramphenicol was added. […]
After the incubation period, the growth of each well in each plate was rated by optical density at 600 nm using a PerkinElmer Victor plate-reader using the setting “MIC Settings @600 (0.1 s)” that can be found in the Wallac® Victor® software. The results were also roughly assessed visually as cloudy wells (partial growth) appearing in the dilution series where the sample fell off in activity.
After an OD was obtained for each well, the relative growth was determined by the following calculation: [(Treatment w/Bacteria)−(Treatment w/o Bacteria)/(Diluent Control w/Bacteria)−(Diluent Control w/o Bacteria)]×100. […]
Synergy was then determined by Gowing's Equation, set forth above. […]

[2] = system: Saccharomyces cerevisiae wild-type strain BY4742; assay: Saccharomyces cerevisiae liquid culture growth (OD vs untreated control), Example 1; conditions: 16 hours at 30° C.
Protocol: A combination of lipopeptides and natamycin was tested for efficacy against Saccharomyces cerevisiae, which is generally recognized as a model organism for testing activity against fungi and which is closely related to Candida. See Smits, G J, et al., “Stress Tolerance in Fungi—To Kill a Spoilage Yeast,” Current Opin Biotechnol., 16(2): 225-30, (2005) and Castrillo, J I, et al., “Yeast as a Touchstone in Post-Genomic Research: Strategies for Integrative Analysis in Functional Genomics,” J Biochem Mol Biol., 37(1): 93-106, (2004).
Saccharomyces cerevisiae wild-type strain BY4742 was grown in liquid YPD in the presence of: (1) natamycin (Haorui Pharma-Chem Inc), (2) the above-described lipopeptide extract, (3) natamycin+lipopeptide extract, and 4) no lipopeptides or natamycin (control). The initial concentration of natamycin before being added to the liquid culture was 1 ppm and the initial concentration of lipopeptide extract was 15 ppm. Final concentration of natamycin in the liquid culture was 0.08 ppm and final concentration of lipopeptide extract was 1.12 ppm, such that the weight to weight ratio of natamycin to lipopeptide in the sample containing both was 1:14. […]
Gowing's Equation was applied, as follows, to determine synergism of lipopeptides with natamycin. […] Thus, X and Y are calculated by subtracting the amount of growth on a treated plate from 100, as shown below. […]

C[C@@H]1[C@H](O)[C@@H](C)/C=C/C=C/CC/C=C/C=C/C=C/C=C/C(O[C@H]2O[C@H](C)[C@@H](O)[C@H](N)[C@@H]2O)CC2O[C@](O)(CC(O)C(O)CCC(O)CC(O)CC(O)CC(=O)O[C@H]1C)CC(O)C2C(=O)O (stereo partly shown) [Nystatin, nystatin]
% of Growth of the Given Compound(s) at 1.12 ppm (Geotrichum candidum; nystatin series, each component 1.12 ppm final): 96.2% | % of Growth of the Given Compound(s) at 2.23 ppm ([1]; nystatin series): 30.5% | % of Growth of the Given Compound(s) at 0.56 ppm (Saccharomyces cerevisiae; nystatin series, each component 0.56 ppm final): 96.5%

C[C@@H]1C/C=C/C=C/C=C/C=C/[C@H](O[C@@H]2O[C@H](C)[C@@H](O)[C@H](N)[C@@H]2O)C[C@@H]2O[C@](O)(C[C@@H](O)C[C@H]3O[C@@H]3/C=C/C(=O)O1)C[C@H](O)[C@H]2C(=O)O [Natamycin, natamycin]
% of Growth of the Given Compound(s) at 2.23 ppm (Geotrichum candidum; natamycin series, each component 2.23 ppm final): 110.4% | % of Growth of the Given Compound(s) at 2.23 ppm ([1]; natamycin series): 57.4% | Percent Growth (Penicillium expansum; 1.1 ppm final of each component, 3 days at 20° C., OD 600 nm): 102% | % of Growth of the Given Compound(s) at 2.23 ppm (Penicillium expansum; each component 2.23 ppm final, combinations 1:1 w/w): 35.38% | % of Growth of the Given Compound(s) at 1.12 ppm (Saccharomyces cerevisiae; natamycin series, each component 1.12 ppm final, 30° C. overnight): 97.4% | inhibition at 0.08 ppm ([2]; Saccharomyces cerevisiae, natamycin 0.08 ppm, lipopeptide extract 1.12 ppm final, read-out: growth inhibition (X, Y, Eob = 100 − growth)): 22.1% | growth (OD) normalized to untreated control set at 100% ([2]; natamycin 0.08 ppm final, lipopeptide extract 1.12 ppm final (1:14 w/w), liquid YPD): 77.89%
